Where two headings read alike, the source gives them in different places.

The test deals with 1b_Huh-Luc/Neo-ET cell line (bicistronic genotype 1b replicon in Huh 7 cells). In words: HCV 1b replicon assay, luciferase readout. In kind it is cell-based, HCV genotype 1b. How it is done:
Biological activity of the compounds of the invention was determined using an HCV replicon assay. The 1b_Huh-Luc/Neo-ET cell line persistently expressing a bicistronic genotype 1b replicon in Huh 7 cells was obtained from ReBLikon GMBH. This cell line was used to test compound inhibition using luciferase enzyme activity readout as a measurement of compound inhibition of replicon levels.
On Day 1 (the day after plating), each compound is added in triplicate to the cells. Plates incubated for 72 […] prior to running the luciferase assay. Enzyme activity was measured using a Bright-Glo Kit (cat. number E2620) manufactured by Promega Corporation. The following equation was used to generate a percent control value for each compound.
%Control=(Average Compound Value/Average Control)*100
The EC50 value was determined using GraphPad Prism and the following equation:
Y=Bottom+(Top−Bottom)/(1+10̂((LogIC50−X)*HillSlope))
EC50 values of compounds are repeated several times in the replicon assay.

The mark [1] stands for this setting: Hepatitis C virus, Huh-7, 1b_Huh-Luc/Neo-ET cell line, read-out: EC50, half-maximal inhibition of HCV 1b replication.
Where [2] appears, read: Hepatitis C virus, Huh-7, class symbol, HCV genotype 1b replicon, read-out: Inhibition of HCV genotype 1b replicon.
[3] abbreviates: class symbol, HCV genotype 1b replicon, read-out: Inhibition of HCV genotype 1b replicon.

Turning to `CNC(=O)c1c(-c2ccc(Oc3ccc(F)cc3)cc2)oc2cc3c(cc12)C(C)OC1(CC1)CN3S(C)(=O)=O` (centres unmarked) [Compound B178], the EC50 lay within 10 to 100 nM under setting [1] and 10 to 100 nM under setting [2].

For the compound `CNC(=O)c1c(-c2ccc(F)cc2)oc2cc3c(cc12)C(C)OC(C)(C)CN3S(C)(=O)=O` (centres unmarked) [Compound B183], the EC50 lay in the range of 10 to 100 nM under setting [1] and 10 to 100 nM under setting [2].

On to `CNC(=O)c1c(-c2ccc(F)cc2)oc2cc3c(cc12)C(C)OC1(CC1)CN3S(C)(=O)=O` (centres unmarked) [Compound B188], for which the EC50 is, setting by setting: under setting [1], 10 to 100 nM; under setting [2], 10 to 100 nM.

With `CNC(=O)c1c(-c2ccc(F)cc2)oc2cc3c(cc12)C(C)n1nnnc1CN3S(C)(=O)=O` (centres unmarked) [Compound B189], the EC50 under setting [1] is 10 to 100 nM and the EC50 under setting [2] lay in the range of 10 to 100 nM.

As to `CNC(=O)c1c(-c2ccc(F)cc2)oc2cc3c(cc12)C(C)OC(C)CN3S(C)(=O)=O` (centres unmarked) [Compound B190], the EC50 was at most 10 nM under setting [1] and under 10 nM under setting [2].

On to `CNC(=O)c1c(-c2ccc(Oc3ccc(F)cc3)cc2)oc2cc3c(cc12)C(C)OC(CO)CN3S(C)(=O)=O` (centres unmarked) [Compound B191], for which, under setting [3], the EC50 was under 10 nM.

`CNC(=O)c1c(-c2ccc(F)cc2)oc2cc3c(cc12)C(C)OC(CO)CN3S(C)(=O)=O` (centres unmarked) [Compound B195]: the EC50 was in the range of 10 to 100 nM under setting [1] and 10 to 100 nM under setting [2].

Consider `CNC(=O)c1c(-c2ccc(F)cc2)oc2cc3c(cc12)C(C)OC(CS(C)(=O)=O)CN3S(C)(=O)=O` (centres unmarked) [Compound B196], for which the EC50 by setting is: under setting [1], at most 10 nM; under setting [2], under 10 nM.

In the case of `CC1CCCN(S(C)(=O)=O)c2cc3oc(-c4ccc(Oc5ccc(F)cc5)cc4)c(-c4ncc[nH]4)c3cc21` (centres unmarked) [Compound B198], the EC50 under setting [1] was at most 10 nM and the EC50 under setting [2] was under 10 nM.

Regarding `CNC(=O)c1c(-c2ccc(F)cc2)oc2cc3c(cc12)C(C)c1ccccc1CN3S(C)(=O)=O` (centres unmarked) [Compound B199], the EC50 by setting is: under setting [1], 10 to 100 nM; under setting [2], 10 to 100 nM.

As to `CNC(=O)c1c(-c2ccc(F)cc2)oc2cc3c(cc12)CCc1ccccc1CN3S(C)(=O)=O` [Compound B200], the EC50 reads like this: under setting [1], 10 to 100 nM; under setting [2], 10 to 100 nM.

Consider `CC1OCCN(S(C)(=O)=O)c2cc3oc(-c4ccc(Oc5ccc(F)cc5)cc4)c(-c4ncc[nH]4)c3cc21` (centres unmarked) [Compound B202], for which the EC50 lay within 10 to 100 nM under setting [1] and 10 to 100 nM under setting [2].

As for `CNC(=O)c1c(-c2ccc(F)cc2)oc2cc3c(cc12)C(C)OC(CN1CCOCC1)CN3S(C)(=O)=O` (centres unmarked) [Compound B205], the EC50 runs as follows: under setting [1], 10 to 100 nM; under setting [2], 10 to 100 nM.

In the case of `CNC(=O)c1c(-c2ccc(Oc3ccc(F)cc3)cc2)oc2cc3c(cc12)[C@@H](C)O[C@@H](CS(C)(=O)=O)CN3S(C)(=O)=O` [Compound B206], the EC50 under setting [2] is 100 to 1000 nM.

As to `CNC(=O)c1c(-c2ccc(F)cc2)oc2cc3c(cc12)C(C)O[C@@H](c1ccc(F)cc1)CN3S(C)(=O)=O` (some centres unmarked) [Compound B210], the EC50 is, setting by setting: under setting [1], 10 to 100 nM; under setting [2], 10 to 100 nM.

For `CNC(=O)c1c(-c2ccc(F)cc2)oc2cc3c(cc12)[C@@H](C)O[C@@H](CO)CN3S(C)(=O)=O` [Compound B211], the EC50 under setting [2] is over 1000 nM.

With `CNC(=O)c1c(-c2ccc(F)cc2)oc2cc3c(cc12)[C@@H](C)O[C@@H](CS(C)(=O)=O)CN3S(C)(=O)=O` [Compound B213], the EC50 under setting [2] is over 1000 nM.

`CNC(=O)c1c(-c2ccc(F)cc2)oc2cc3c(cc12)[C@H](C)O[C@H](CS(C)(=O)=O)CN3S(C)(=O)=O` [Compound B215]: the EC50 by setting is: under setting [1], 10 to 100 nM; under setting [3], 10 to 100 nM.

As to `CNC(=O)c1c(-c2ccc(Oc3ccc(F)cc3)cc2)oc2cc3c(cc12)[C@H](C)O[C@H](CS(C)(=O)=O)CN3S(C)(=O)=O` [Compound B216], the EC50 runs as follows: under setting [1], 10 to 100 nM; under setting [3], 10 to 100 nM.

With `CNC(=O)c1c(-c2ccc(F)cc2)oc2cc3c(cc12)[C@@H](C)O[C@H](CO)CN3S(C)(=O)=O` [Compound B217], the EC50 lay in the range of 10 to 100 nM under setting [1] and 10 to 100 nM under setting [2].

As for `CNC(=O)c1c(-c2ccc(F)cc2)oc2cc3c(cc12)C(C)OC(CN=[N+]=[N-])CN3S(C)(=O)=O` (centres unmarked) [Compound B218], the EC50 runs as follows: under setting [1], at most 10 nM; under setting [2], under 10 nM.

For the compound `CNC(=O)c1c(-c2ccc(F)cc2)oc2cc3c(cc12)C(C)OCC(CO)N3S(C)(=O)=O` (centres unmarked) [Compound B219], the EC50 lay in the range of 10 to 100 nM under setting [1] and 10 to 100 nM under setting [2].

On to `CNC(=O)c1c(-c2ccc(F)cc2)oc2cc3c(cc12)C(C)OC(CNS(C)(=O)=O)CN3S(C)(=O)=O` (centres unmarked) [Compound B220], for which the EC50 is 10 to 100 nM under setting [1] and 10 to 100 nM under setting [2].

For the compound `CNC(=O)c1c(-c2ccc(F)cc2)oc2cc3c(cc12)C(C)OC(CNC(=O)OC)CN3S(C)(=O)=O` (centres unmarked) [Compound B221], the EC50 reads like this: under setting [1], at most 10 nM; under setting [2], under 10 nM.

Take `CNC(=O)c1c(-c2ccc(F)cc2)oc2cc3c(cc12)C(C)OC(CN(C)C)CN3S(C)(=O)=O` (centres unmarked) [Compound B222]: the EC50 under setting [1] fell in the range of 10 to 100 nM and the EC50 under setting [2] lay within 10 to 100 nM.

On to `CNC(=O)c1c(-c2ccc(F)cc2)oc2cc3c(cc12)C(C)OC(C(=O)N(C)C)CN3S(C)(=O)=O` (centres unmarked) [Compound B223], for which the EC50 lay within 10 to 100 nM under setting [1] and 10 to 100 nM under setting [2].

Regarding `CNC(=O)c1c(-c2ccc(Oc3ccc(F)cc3)cc2)oc2cc3c(cc12)[C@H](C)O[C@@H](CS(C)(=O)=O)CN3S(C)(=O)=O` [Compound B224], the EC50 lay in the range of 10 to 100 nM under setting [1] and 10 to 100 nM under setting [2].

Turning to `CNC(=O)c1c(-c2ccc(F)cc2)oc2cc3c(cc12)C(C)OCC(CS(C)(=O)=O)N3S(C)(=O)=O` (centres unmarked) [Compound B225], the EC50 runs as follows: under setting [1], 10 to 100 nM; under setting [2], 10 to 100 nM.

Consider `CNC(=O)c1c(-c2ccc(F)cc2)oc2cc3c(cc12)C(C)OC(CC#N)CN3S(C)(=O)=O` (centres unmarked) [Compound B226], for which the EC50 is at most 10 nM under setting [1] and under 10 nM under setting [2].

`CNC(=O)c1c(-c2ccc(F)cc2)oc2cc3c(cc12)C(C)OC(C(=O)N1CCCC1)CN3S(C)(=O)=O` (centres unmarked) [Compound B227]: the EC50 lay within 10 to 100 nM under setting [1] and 10 to 100 nM under setting [2].

In the case of `CNC(=O)c1c(-c2ccc(F)cc2)oc2cc3c(cc12)C(C)OC(C(=O)N1CCOCC1)CN3S(C)(=O)=O` (centres unmarked) [Compound B228], the EC50 under setting [1] is 10 to 100 nM and the EC50 under setting [2] is 10 to 100 nM.

For the compound `CNC(=O)c1c(-c2ccc(F)cc2)oc2cc3c(cc12)C(C)OC(C(=O)NC)CN3S(C)(=O)=O` (centres unmarked) [Compound B229], the EC50 by setting is: under setting [1], 10 to 100 nM; under setting [2], 10 to 100 nM.

For the compound `CNC(=O)c1c(-c2ccc(F)cc2)oc2cc3c(cc12)[C@H](C)O[C@H](CCO)CN3S(C)(=O)=O` [Compound B230], the EC50 is, setting by setting: under setting [1], 10 to 100 nM; under setting [2], 10 to 100 nM.

On to `CNC(=O)c1c(-c2ccc(F)cc2)oc2cc3c(cc12)[C@H](C)O[C@@H](CCO)CN3S(C)(=O)=O` [Compound B231], for which the EC50 was in the range of 10 to 100 nM under setting [1] and 10 to 100 nM under setting [2].

As for `CNC(=O)c1c(-c2ccc(F)cc2)oc2cc3c(cc12)[C@H](C)O[C@H](CCS(C)(=O)=O)CN3S(C)(=O)=O` [Compound B233], the EC50 is, setting by setting: under setting [1], at most 10 nM; under setting [2], under 10 nM.

For the compound `CNC(=O)c1c(-c2ccc(F)cc2)oc2cc3c(cc12)[C@H](C)O[C@@H](CCS(C)(=O)=O)CN3S(C)(=O)=O` [Compound B234], the EC50 was in the range of 10 to 100 nM under setting [1] and 10 to 100 nM under setting [2].

`CNC(=O)c1c(-c2ccc(Oc3ccc(F)cc3)cc2)oc2cc3c(cc12)C(C)OC(CCO)CN3S(C)(=O)=O` (centres unmarked) [Compound B235]: the EC50 reads like this: under setting [1], 10 to 100 nM; under setting [2], 10 to 100 nM.

With `CNC(=O)c1c(-c2ccc(Oc3ccc(F)cc3)cc2)oc2cc3c(cc12)C(C)OC(CCS(C)(=O)=O)CN3S(C)(=O)=O` (centres unmarked) [Compound B236], the EC50 is at most 10 nM under setting [1] and under 10 nM under setting [2].

As for `CNC(=O)c1c(-c2ccc(Oc3ccc(F)cc3)cc2)oc2cc3c(cc12)[C@H](C)O[C@H](COC(=O)[C@@H](N)C(C)C)CN3S(C)(=O)=O` [Compound B237], the EC50 runs as follows: under setting [1], at most 10 nM; under setting [2], under 10 nM.

Take `CNC(=O)c1c(-c2ccc(Oc3ccc(F)cc3)cc2)oc2cc3c(cc12)[C@H](C)O[C@H](COC(=O)[C@H](C)N)CN3S(C)(=O)=O` [Compound B238]: the EC50 runs as follows: under setting [1], at most 10 nM; under setting [2], under 10 nM.

Regarding `CNC(=O)c1c(-c2ccc(Oc3ccc(F)cc3)cc2)oc2cc3c(cc12)[C@H](C)O[C@H](COC(=O)CN(C)C)CN3S(C)(=O)=O` [Compound B239], the EC50 is at most 10 nM under setting [1] and under 10 nM under setting [2].

As for `CNC(=O)c1c(-c2ccc(Oc3ccc(F)cc3)cc2)oc2cc3c(cc12)[C@H](C)O[C@H](COP(=O)(O)O)CN3S(C)(=O)=O` [Compound B240], the EC50 under setting [1] was at most 10 nM and the EC50 under setting [2] was under 10 nM.

As for `CNC(=O)c1c(-c2ccc(Oc3ccc(F)cc3)cc2)oc2cc3c(cc12)[C@H](C)O[C@@H](CO)CN3S(C)(=O)=O` [Compound B241], the EC50 is 10 to 100 nM under setting [1] and 10 to 100 nM under setting [2].

In the case of `CNC(=O)c1c(-c2ccc(F)cc2)nn2cc3c(cc12)C(C)OC(CO)CN3S(C)(=O)=O` (centres unmarked) [Compound B242], the EC50 under setting [2] is 100 to 1000 nM.
